This is an account of results in US8067602B2, “Asymmetric cyanine fluorescent dyes, compositions and their use in staining biological samples” (Shenzhen Mindray Bio-Medical Electronics Co., Ltd., priority 2008, dated 2011).

Series [1] in a line: Fluorescence quantum yield in ethanol. The series is classed as physicochemical. Conditions: room temperature, triplicate, Rhodamine B as standard. As for the experimental part: Each of the dyes were detected in triplicate at room temperature. Fluorescence quantum yields were calculated and averaged. With Rhodamine B as the standard (φF=0.97, ethanol), the fluorescence quantum yield for the known compound M in the ethanol solution was calculated to be φF=1.099×10^−2; for Dye-1, φF=1.590×10^−2; for Dye-2, φF=1.248×10^−2; and for Dye-3, φF=1.181×10^−2. The instrument used was UV-Vis spectrophotometer Model Lambda 35, and fluorescence spectrophotometer Model FL-4500.

Another series has as its system salmon sperm DNA. Description: Fluorescence intensity of dye in PBS with salmon sperm DNA (excitation 633 nm). The series is classed as binding. Conditions: for fluorescence of the dye per se in PBS without nucleic acid: PBS without DNA/RNA; for Relative fluorescence intensity after binding DNA / Relative fluorescence intensity before binding DNA: in PBS; for Relative fluorescence intensity after binding DNA: bound with salmon sperm DNA; for Relative fluorescence intensity before binding DNA: no DNA; for Ratio of increase in fluorescence (after vs before binding): salmon sperm DNA in PBS. As for the experimental part:
An amount of Dye-1 was accurately weighed and sufficiently dissolved in 2.5 mL methanol/ethylene glycol (50:50 vol/vol) to prepare a dye solution at a concentration of 5 mM. This solution was filtered before use. Separate amounts of salmon sperm DNA were weighed and dissolved in PBS to obtain PBS buffers containing 3 mg/mL, 1 mg/mL, 0.3 mg/mL, 0.1 mg/mL of DNA. 2-μL aliquots of the prepared 5 mM dye solution were accurately measured and respectively combined in 1 mL PBS with 1 μL of the PBS buffers containing different concentrations of DNA. After reacting for a period of time, the complexes were detected for their emission spectra at the selected excitation wavelength of 633 nm. The detection temperature was at room temperature. The instrument used was fluorescence spectrophotometer Model FL-4500.
FIG. 2 is a comparison of the relative fluorescence strength of Dye-1 in PBS before and after it is bound with DNA.
(§1) The detection procedures followed were those described in Example 10 and Example 11. The fluorescence spectra for the complexes of Dye-2 with different concentrations of DNA or RNA are shown in FIG. 5 and FIG. 6, respectively. The comparisons of fluorescence for Dye-2 before and after it is bound with DNA or with RNA in PBS are shown in FIG. 7 and FIG. 8, respectively.
(§2) The detection procedures followed were those described in Example 10 and Example 11. The comparisons of fluorescence for Dye-3 before and after it bound with DNA or with RNA in PBS are shown in FIG. 9 and FIG. 10, respectively.
Table 1 compares the ratios of increase in fluorescence for Dye-1, Dye-2 and Dye-3 after vs before they bound with salmon sperm DNA in PBS.

The subject of series [2] is soft-shelled turtle (Trionyx sinensis) liver RNA. Description: Fluorescence intensity of dye in PBS with soft-shelled turtle liver RNA (excitation 633 nm). The format is binding. Conditions: for ability to bind to nucleic acids versus Dye-0: concluded from FIG. 11; for increase in fluorescence intensity after binding RNA, comparison of dyes: identical concentrations, FIG. 11; for Relative fluorescence intensity after binding RNA / Relative fluorescence intensity before binding RNA: in PBS; for Relative fluorescence intensity after binding RNA: bound with turtle liver RNA; for Relative fluorescence intensity before binding RNA: no RNA; for Ratio of increase in fluorescence (after vs before binding): turtle liver RNA in PBS. As for the experimental part: An amount of Dye-1 was accurately weighed and sufficiently dissolved in 2.5 mL methanol/ethylene glycol (50:50 vol/vol) to prepare a dye solution at a concentration of 5 mM. This solution was filtered before use. Separate amounts of soft-shelled turtle (Trionyx sinensis) liver RNA were weighed and dissolved in PBS to obtain PBS buffers containing 30 μg/mL, 10 μg/mL, 3 μg/mL, 1 μg/mL of RNA. 2-μL aliquots of the prepared 5 mM dye solution were accurately measured and respectively combined in 1 mL PBS with 1 μL of the PBS buffers containing different concentrations of RNA. After reacting for a period of time, the complexes were detected for their emission spectra at the selected excitation wavelength of 633 nm. The detection temperature was at room temperature. The instrument used was fluorescence spectrophotometer Model FL-4500.
FIG. 4 is a comparison of the relative fluorescence strength of Dye-1 in PBS before and after it is bound with RNA. As can likewise be seen in the figure, when Dye-1 formed complexes with RNA, there occurred a rapid increase in fluorescence intensity accompanied by a certain degree of red shift of fluorescence, with the maximum […] peak at about 655 nm in the near-infrared region, which can avoid the interference from the background fluorescence of the organisms per se and therefore improve the accuracy of detection.
as §1, §2
Table 2 compares the ratios of increase in fluorescence for Dye-1, Dye-2 and Dye-3 after vs before they bound with soft-shelled turtle (Trionyx sinensis) liver RNA in PBS.
The detection procedure followed was that described in Example 10. The fluorescence spectra for Dye-1, Dye-2 and Dye-0 after they bound in identical concentrations with soft-shelled turtle (Trionyx sinensis) liver RNA are shown in FIG. 11.

The conditions of series [3]: ethanol; cited from earlier work.

As to `CCN1C=C/C(=C\C=C\c2sc3ccccc3[n+]2CC)c2ccccc21.[I-]` [Dye-0, reference compound], the “fluorescence quantum yield φF” value in series [1] is 1.099×10^−2.

As to `CCOC(=O)CCCCC[n+]1c(/C=C/C=C2\C=CN(Cc3ccccc3)c3ccccc32)sc2ccccc21.[Br-]` [Dye-1], the “change of fluorescence emission strength of dye/DNA complexes with DNA concentration” value in the series on salmon sperm DNA (DNA buffers 0.1-3 mg/mL, FIG. 1) is listed as “increased rapidly with the increase in DNA concentration”. Further, in the series on salmon sperm DNA, the “fluorescence of the dye per se in PBS without nucleic acid” value is reported as “scarcely generated any fluorescence”, the “Relative fluorescence intensity after binding DNA” value worked out at 68.63, the “Relative fluorescence intensity before binding DNA” value turned out to be 1.82 and the “Ratio of increase in fluorescence (after vs before binding)” value (“Ratio of increase in fluorescence” for short) is 38. In series [2] (RNA buffers 1-30 μg/mL, FIG. 3), the “change of fluorescence emission strength of dye/RNA complexes with RNA concentration” value was “increased rapidly with the increase in RNA concentration”. Besides, in series [2], the “ability to bind to nucleic acids versus Dye-0” value was “superior to Dye-0”; the “increase in fluorescence intensity after binding RNA, comparison of dyes” value is given as “largest magnitude of increase in fluorescence intensity”; the “Relative fluorescence intensity after binding RNA” value is reported as 83.24; the “Relative fluorescence intensity before binding RNA” value was found to be 1.82. The “Ratio of increase in fluorescence” value in series [2] turned out to be 46. Besides, in series [1], the “fluorescence quantum yield φF” value is 1.590×10^−2.

As for `CCOC(=O)CCCN1C=C/C(=C\C=C\c2sc3ccccc3[n+]2CCO)c2ccccc21.[Br-]` [Dye-2], in the series with salmon sperm DNA, the “fluorescence of the dye per se in PBS without nucleic acid” value is “scarcely generated any fluorescence”, the “Relative fluorescence intensity after binding DNA” value is 102.93, the “Relative fluorescence intensity before binding DNA” value came to 0.97 and the “Ratio of increase in fluorescence” value is 106. Also, in series [2], the “ability to bind to nucleic acids versus Dye-0” value is reported as “superior to Dye-0”; the “increase in fluorescence intensity after binding RNA, comparison of dyes” value is given as “marked increase in fluorescence intensity”; the “Relative fluorescence intensity after binding RNA” value was 37.28; the “Relative fluorescence intensity before binding RNA” value turned out to be 0.97. Further, the “Ratio of increase in fluorescence” value in series [2] was found to be 38. Besides, in series [1], the “fluorescence quantum yield φF” value is recorded as 1.248×10^−2.

Regarding `OCCN1C=C/C(=C\C=C\c2sc3ccccc3[n+]2CCOc2ccccc2)c2ccccc21.[Br-]` [Dye-3], in the series on salmon sperm DNA, the “fluorescence of the dye per se in PBS without nucleic acid” value is “weak fluorescence”, the “Relative fluorescence intensity after binding DNA” value was 94.37, the “Relative fluorescence intensity before binding DNA” value turned out to be 1.64 and the “Ratio of increase in fluorescence” value stood at 55. In series [2], the “Relative fluorescence intensity after binding RNA” value is listed as 33.57, the “Relative fluorescence intensity before binding RNA” value was found to be 1.64 and the “Ratio of increase in fluorescence” value came to 20. The “fluorescence quantum yield φF” value in series [1] is 1.181×10^−2.

With `CCN(CC)c1ccc2c(-c3ccccc3C(=O)O)c3ccc(=[N+](CC)CC)cc-3oc2c1.[Cl-]` [Rhodamine B], in series [3], the “fluorescence quantum yield φF of the standard” value is given as 0.97.
